From patent US6551790B2, “Process for glucuronidation screening” (PanVera LLC, priority 1998, dated 2003)
Residue numbers refer to the chain shown, from its start. In names and notes the source's numbering stands. Entries after “also recorded” stand apart in the source; their conditions may differ. Where two headings read alike, the source gives them in different places.

Legend:
[1] = biological target: T1, bacterial β-glucuronidase (Escherichia coli, UniProt P05804); conditions: read-out: apparent Km value for cleavage by β-glucuronidase; linear conditions of protein concentration and incubation time; FIG. 1
T1 sequence (P05804 whole entry): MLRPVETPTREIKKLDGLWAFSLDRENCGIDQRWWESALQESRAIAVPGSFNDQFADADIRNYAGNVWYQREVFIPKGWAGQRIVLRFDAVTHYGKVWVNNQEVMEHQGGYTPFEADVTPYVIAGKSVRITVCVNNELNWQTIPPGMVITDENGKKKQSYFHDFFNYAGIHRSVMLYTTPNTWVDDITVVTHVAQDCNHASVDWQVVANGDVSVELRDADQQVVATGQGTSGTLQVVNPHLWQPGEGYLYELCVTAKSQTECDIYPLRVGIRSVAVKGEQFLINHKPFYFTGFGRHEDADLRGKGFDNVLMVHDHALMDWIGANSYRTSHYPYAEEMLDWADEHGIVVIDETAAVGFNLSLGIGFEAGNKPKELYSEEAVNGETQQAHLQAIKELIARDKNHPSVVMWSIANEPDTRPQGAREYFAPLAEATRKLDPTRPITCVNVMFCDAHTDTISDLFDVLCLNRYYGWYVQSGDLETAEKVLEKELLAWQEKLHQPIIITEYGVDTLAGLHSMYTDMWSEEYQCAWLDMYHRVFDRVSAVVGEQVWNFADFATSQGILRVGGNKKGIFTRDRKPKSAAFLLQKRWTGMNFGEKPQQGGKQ

UGT2B7Y(268) [2] = biological target: T2, UGT2B7Y(268) (Homo sapiens, UniProt P16662)
T2 sequence (P16662 24-529): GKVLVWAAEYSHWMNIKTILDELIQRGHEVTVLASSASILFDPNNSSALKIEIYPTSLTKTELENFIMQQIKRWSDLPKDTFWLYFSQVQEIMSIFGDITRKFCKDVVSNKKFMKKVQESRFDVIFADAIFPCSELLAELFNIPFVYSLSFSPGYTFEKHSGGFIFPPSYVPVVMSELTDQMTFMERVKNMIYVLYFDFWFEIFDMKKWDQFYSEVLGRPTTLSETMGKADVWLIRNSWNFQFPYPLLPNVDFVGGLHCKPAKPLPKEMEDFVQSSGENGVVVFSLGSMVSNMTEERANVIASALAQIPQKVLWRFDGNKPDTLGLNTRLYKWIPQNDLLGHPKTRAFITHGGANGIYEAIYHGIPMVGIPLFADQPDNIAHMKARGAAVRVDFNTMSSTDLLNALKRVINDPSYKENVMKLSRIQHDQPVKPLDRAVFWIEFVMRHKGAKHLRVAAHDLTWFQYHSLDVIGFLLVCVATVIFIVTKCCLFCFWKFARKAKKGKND

UGT2B7H(268) [3] = biological target: T3, UGT2B7H(268) (Homo sapiens, UniProt P16662, Y268H)
T3 sequence (P16662 24-529 Y268H): T2 sequence (P16662 24-529) with Y245H

UGT2B7H(268) [4] = biological target: T3, UGT2B7H(268); test: Kinetics of glucuronidation, membrane preparations of HK293 cells stably expressing UGT2B7H(268)
UGT2B7Y(268) [5] = biological target: T2, UGT2B7Y(268); test: Kinetics of glucuronidation, membrane preparations of HK293 cells stably expressing UGT2B7Y(268)
[6] = biological target: T1, bacterial β-glucuronidase; test: Inhibition of 4-methylumbelliferyl-β-D-glucuronide cleavage by β-D-glucuronides; assay type: biochemical; set-up: purchased Sigma, St. Louis Mo; G-7396; conditions: for inhibition of 4-methylumbelliferyl-β-D-glucuronide cleavage (production of 4-methylumbelliferone): FIG. 2, varying glucuronide concentrations
From the text: FIG. 2 depicts the effect of varying concentrations of β-D-glucuronide on the ability of β-glucuronidase to cleave various substrates.
Tetrahydrocortisone 3-β-D-glucuronide was obtained from Molecular Probes, Eugene, Oreg. Recombinant control and UGT1A6 membrane preparations were generated and are commercially available from PanVera Corporation, Madison Wis. All other reagents were analytical grade or better and purchased from a variety of commercial sources.
In order to show the feasibility of developing a high throughput inhibition assay, we examined the potential of a variety of structurally dissimilar, commercially available β-D-glucuronides to act as inhibitors for the cleavage of 4-methylumbelliferyl-β-D-glucuronide. These β-D-glucuronides represent compounds that might potentially be formed by UGT activity e.g. phenol and steroid glucuronides.

UGT2B7H(268) [7] = biological target: T3, UGT2B7H(268); test: in vitro
UGT2B7Y(268) [8] = biological target: T2, UGT2B7Y(268); test: in vitro
UGT2B7 = biological target: T4, UGT2B7 (Homo sapiens, UniProt P16662)
T4 sequence (P16662 24-529): T2 sequence (P16662 24-529)
From the text: Heterologous expression and characterization of full length UGT 2B7.
Stable UGT2B7 cell lines were established from embryonic human kidney cells (HK293 cells) and microsomal membrane fractions from these cells were used to assess the properties of the recombinant enzyme. […] The specificity of the purified UGT2B7 will be assessed by determining overall catalytic efficiency with each aglycone substrate, as reflected in a ratio of the two fundamental Michaelis kinetic parameters, Vmax/Km. Reaction rates will be determined over a range of substrate concentrations and nonlinear regression will be used to fit the UGT rate data to velocity versus substrate curves (Graph Pad, Prism). Vmax/Km values will be determined and compared with those determined with the enzyme isolated from HK293 cells (Table 1). […] This ratio will be determined for the purified enzyme using HPLC-based methods for separation and quantification of the two glucuronides.

UGT2B7H(268) [9] = biological target: T3, UGT2B7H(268); conditions: reported by another laboratory; cited from earlier work
UGT2B7Y(268) [10] = biological target: T2, UGT2B7Y(268); conditions: reported by one laboratory; cited from earlier work
[11] = cited from earlier work
recombinant human UGT1A6 = recombinant human UGT1A6 (Homo sapiens, UniProt P19224)
Chain of recombinant human UGT1A6 (P19224 27-532): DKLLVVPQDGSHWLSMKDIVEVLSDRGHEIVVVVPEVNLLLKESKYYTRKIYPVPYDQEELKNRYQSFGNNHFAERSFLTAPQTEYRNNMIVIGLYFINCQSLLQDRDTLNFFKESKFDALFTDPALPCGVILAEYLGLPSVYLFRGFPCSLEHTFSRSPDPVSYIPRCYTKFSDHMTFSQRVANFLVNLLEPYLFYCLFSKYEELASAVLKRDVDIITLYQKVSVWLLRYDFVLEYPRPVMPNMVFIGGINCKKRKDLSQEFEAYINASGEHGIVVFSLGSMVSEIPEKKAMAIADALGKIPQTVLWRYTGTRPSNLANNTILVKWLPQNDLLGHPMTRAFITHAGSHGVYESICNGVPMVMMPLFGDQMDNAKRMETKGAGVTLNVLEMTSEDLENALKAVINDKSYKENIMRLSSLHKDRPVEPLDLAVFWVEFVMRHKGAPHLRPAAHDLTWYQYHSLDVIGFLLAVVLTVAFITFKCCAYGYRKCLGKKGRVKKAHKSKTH
Experimental: Two approaches were taken to test the feasibility of coupling the UGT-dependent production of glucuronides to inhibition of fluorescent product formation by β-D-glucuronidase. The first involved extracting the UGT reaction products and adding them to the β-D-glucuronidase fluorescence assay reagents. The second involved adding the β-D-glucuronidase reaction components directly to the quenched UGT reaction. […] Following extraction, 4-methylumbelliferyl-β-D-glucuronide assay reagents were added to the extracted, dried reaction residues.
In the second approach, 4-methylumbelliferyl-β-D-glucuronide assay reagents were added directly to a β-naphthyl glucuronidation assay that was performed in a 96 well plate. […] The horogeneous format circumvented the need for extraction, but required longer incubation periods with the recombinant enzyme.
After identifying a suitable β-glucuronidase and determining the optimal concentrations of vious assay components, the fluorescent assay was tested for its ability to detect β-glucuronides generated by a recombinant UGT enzyme. […] To establish the feasibility of performing the assay in an HTS format, the assay was conducted in a 96 well plate in a homogenous format, i.e., without extracting the glucuronide produced in the UGT reaction prior to starting the β-glucuronidase reaction.

[12] = substrate: C=CCN1CC[C@]23c4c5ccc(O)c4O[C@H]2C(=O)CC[C@@]3(O)[C@H]1C5; test: cells, lysate or membranes named; conditions: two values = two different passages of cultured cells
[13] = substrate: C=CCN1CC[C@]23c4c5ccc(O)c4O[C@H]2[C@@H](O)C=C[C@H]3[C@H]1C5; test: cells, lysate or membranes named
[14] = substrate: CN1CC[C@]23c4c5ccc(O)c4O[C@H]2C(=O)CC[C@@]3(O)[C@H]1C5; test: cells, lysate or membranes named
[15] = substrate: O=C1CC[C@@]2(O)[C@H]3Cc4ccc(O)c5c4[C@@]2(CCN3CC2CC2)[C@H]1O5; test: cells, lysate or membranes named; conditions: two values = two different passages of cultured cells

## Cc1cc(=O)oc2cc(O[C@@H]3O[C@H](C(=O)O)[C@@H](O)[C@H](O)[C@H]3O)ccc12 [4-methylumbelliferyl-β-D-glucuronide]
[1]
  Km: ~56 µM

## CC(C)NC[C@@H](O)COc1cccc2ccccc12 [R-propanolol]
UGT2B7Y(268) [2]
  Efficiency Vmax/Km (x100): 53
  Km: 180 µM
UGT2B7H(268) [3]
  Efficiency Vmax/Km (x100): 192
UGT2B7H(268) [4]
  Vmax: 194, 86 pmol/min/mg protein
UGT2B7Y(268) [5]
  Vmax: 96 pmol/min/mg protein

## CC(C)NC[C@H](O)COc1cccc2ccccc12 [S-propanolol]
UGT2B7Y(268) [2]
  Efficiency Vmax/Km (x100): 38, 259
UGT2B7H(268) [3]
  Efficiency Vmax/Km (x100): 205
  Km: 72 ± 19 µM
UGT2B7H(268) [4]
  Vmax: 148 ± 30 pmol/min/mg protein
UGT2B7Y(268) [5]
  Vmax: 70, 140 pmol/min/mg protein

## O=C(O)[C@H]1O[C@H](OP(=O)(O)OP(=O)(O)OC[C@H]2O[C@@H](n3ccc(=O)[nH]c3=O)[C@H](O)[C@@H]2O)[C@H](O)[C@@H](O)[C@@H]1O [UDPGA, Uridine 5′-diphosphoglucuronic acid]
[6]
  inhibition of 4-methylumbelliferyl-β-D-glucuronide cleavage (production of 4-methylumbelliferone): not an effective competitor

## COc1ccc2c3c1O[C@H]1[C@@H](O)C=C[C@H]4[C@@H](C2)N(C)CC[C@@]341 [codeine]
UGT2B7H(268) [7]
  Km: 791 µM
UGT2B7Y(268) [2]; human
  Km: 360 µM
UGT2B7H(268) [3]; human
  Km: 550 µM
UGT2B7Y(268) [8]
  Km: 230 µM
UGT2B7
  Glucuronidation activity towards opioids: demonstrated
  conversion to the 6-O-glucuronide by UGT2B7: efficiently converted
UGT2B7; human, pH 7.7
  efficiency ratio of glucuronidation, 3-OH to 6-OH: 7 to 1
UGT2B7H(268) [4]
  Vmax: 97, 110 pmol/min/mg protein
UGT2B7Y(268) [5]
  Vmax: 190, 40 pmol/min/mg protein

## CC1CCC(C(C)C)C(O)C1 (stereo not shown) [menthol]
UGT2B7H(268) [9]
  activity toward glucuronide formation: inactive
UGT2B7Y(268) [10]
  activity toward glucuronide formation: active

## CN1CC[C@]23c4c5ccc(O[C@@H]6O[C@H](C(=O)O)[C@@H](O)[C@H](O)[C@H]6O)c4O[C@H]2[C@@H](O)C=C[C@H]3[C@H]1C5 [morphine-3-O-glucuronide]
[11]; human, in vivo
  analgesic effects: devoid of analgesic effects
  effect on the analgesic activity of morphine and morphine-6-O-glucuronide: counteract

## CN1CC[C@]23c4c5ccc(O)c4O[C@H]2[C@@H](O[C@@H]2O[C@H](C(=O)O)[C@@H](O)[C@H](O)[C@H]2O)C=C[C@H]3[C@H]1C5 [morphine-6-O-glucuronide]
[11]; clinical studies, versus morphine
  effectiveness as an analgesic relative to the parent compound: 2-3 times

## CN1CC[C@]23c4c5ccc(O)c4O[C@H]2[C@@H](O)C=C[C@H]3[C@H]1C5 [morphine]
UGT2B7
  Glucuronidation activity towards opioids: demonstrated

## C=CCN1CC[C@]23c4c5ccc(O)c4O[C@H]2[C@@H](O)C=C[C@H]3[C@H]1C5 [nalorphine]
UGT2B7
  Glucuronidation activity towards opioids: demonstrated

## C=CCN1CC[C@]23c4c5ccc(O)c4O[C@H]2C(=O)CC[C@@]3(O)[C@H]1C5 [naloxone]
UGT2B7
  Glucuronidation activity towards opioids: demonstrated
UGT2B7H(268) [4]; UGT2B7H, two values = two different passages of cultured cells
  Vmax: 4530 pmol/min/mg protein
UGT2B7Y(268) [5]; UGT2B7Y, two values = two different passages of cultured cells
  Vmax: 2550 pmol/min/mg protein

## O=C1CC[C@@]2(O)[C@H]3Cc4ccc(O)c5c4[C@@]2(CCN3CC2CC2)[C@H]1O5 [naltrexone]
UGT2B7Y(268) [5]
  Vmax: 840, 1130 pmol/min/mg protein

## Oc1cccc2ccccc12 [α-naphthol]
[6]; residues from 0 time point extractions, FIG. 3 panel A
  non-specific interference of the aglycone with the cleavage assay: does not interfere non-specifically
Recombinant human UGT1A6
  4-methylumbelliferyl β-D-glucuronide cleavage slower with UGT1A6 assay compared to control: 60%

## O=C(O)[C@H]1O[C@@H](Oc2cccc3ccccc23)[C@H](O)[C@@H](O)[C@@H]1O [α-naphthyl β-D-glucuronide]
[6]
  inhibition of 4-methylumbelliferyl-β-D-glucuronide cleavage (production of 4-methylumbelliferone): weakest; also recorded: weak competitor
[6]; listed as α-naphthol β-D-glucuronide
  inhibition of 4-methylumbelliferyl-β-D-glucuronide cleavage (production of 4-methylumbelliferone): weak competitive inhibitor

## C[C@]12CC[C@@H]3c4ccc(O[C@@H]5O[C@H](C(=O)O)[C@@H](O)[C@H](O)[C@H]5O)cc4CC[C@H]3[C@@H]1CC[C@@H]2O [β-estradiol-3-(β-D-glucuronide)]
[6]
  inhibition of 4-methylumbelliferyl-β-D-glucuronide cleavage (production of 4-methylumbelliferone): strongest
[6]; listed as estradiol β-D-glucuronide
  inhibition of 4-methylumbelliferyl-β-D-glucuronide cleavage (production of 4-methylumbelliferone): More potent inhibitors

B1: UGT2B7Y(268) (Homo sapiens) (protein)
chain: T2 sequence (P16662 24-529)
[12]; other: UGT2B7Y
  Km: 50, 40 μM
  Vmax: 3750, 2550 pmol/min/mg protein
[13]
  Km: 77, 121 μM
  Vmax: 2870, 3650 pmol/min/mg protein
[14]
  Km: 1360, 900 μM
  Vmax: 5640, 6040 pmol/min/mg protein
[15]; other: UGT2B7Y
  Km: 140, 180 μM

B2: UGT2B7H(268) (Homo sapiens; Y268H) (protein)
chain: T2 sequence (P16662 24-529) with Y245H
[12]; other: UGT2B7H
  Km: 41, 60 μM
  Vmax: 3810, 4530 pmol/min/mg protein
[13]
  Km: 141, 171 μM
  Vmax: 3990, 4670 pmol/min/mg protein
[14]
  Km: 540, 670 μM
  Vmax: 7510, 8570 pmol/min/mg protein
[15]; other: UGT2B7H
  Km: 63, 200 μM
